Test results taken from ChEMBL document CHEMBL1914439, “Novel 1-alkynyl substituted 1,2-dihydroquinoline derivatives from nimesulide (and their 2-oxo analogues): a new strategy to identify inhibitors of PDE4B” (2011).

What was measured:
[1] = biological target: 3',5'-cyclic-AMP phosphodiesterase 4B (Homo sapiens) (UniProt Q07343); experiment: Inhibition of recombinant His-tagged PDE4B expressed in Sf9 cells using cAMP as substrate at 30 uM preincubated for 15 mins measured after 1 hr by multilabel plate reader
RAW264.7 [2] = experiment: Antiinflammatory activity in mouse RAW264.7 cells assessed as inhibition of LPS-induced TNFalpha challenge at 10 uM preincubated for 30 mins before LPS challenge by ELISA; type: functional
[3] = biological target: 3',5'-cyclic-AMP phosphodiesterase 4B (Homo sapiens) (UniProt Q07343); experiment: Inhibition of recombinant His-tagged PDE4B expressed in Sf9 cells using cAMP as substrate at 1 uM preincubated for 15 mins measured after 1 hr by multilabel plate reader
[4] = biological target: 3',5'-cyclic-AMP phosphodiesterase 4B (Homo sapiens) (UniProt Q07343); experiment: Inhibition of recombinant His-tagged PDE4B expressed in Sf9 cells using cAMP as substrate at 0.3 uM preincubated for 15 mins measured after 1 hr by multilabel plate reader
RAW264.7 [5] = experiment: Antiinflammatory activity in mouse RAW264.7 cells assessed as inhibition of LPS-induced TNFalpha challenge at 30 uM preincubated for 30 mins before LPS challenge by ELISA; type: functional
[6] = biological target: 3',5'-cyclic-AMP phosphodiesterase 4B (Homo sapiens) (UniProt Q07343); experiment: Inhibition of recombinant His-tagged PDE4B expressed in Sf9 cells using cAMP as substrate at 10 uM preincubated for 15 mins measured after 1 hr by multilabel plate reader
[7] = biological target: 3',5'-cyclic-AMP phosphodiesterase 4B (Homo sapiens) (UniProt Q07343); experiment: Inhibition of recombinant His-tagged PDE4B expressed in Sf9 cells using cAMP as substrate at 3 uM preincubated for 15 mins measured after 1 hr by multilabel plate reader

Chain of 3',5'-cyclic-AMP phosphodiesterase 4B (Homo sapiens) (Q07343 whole entry): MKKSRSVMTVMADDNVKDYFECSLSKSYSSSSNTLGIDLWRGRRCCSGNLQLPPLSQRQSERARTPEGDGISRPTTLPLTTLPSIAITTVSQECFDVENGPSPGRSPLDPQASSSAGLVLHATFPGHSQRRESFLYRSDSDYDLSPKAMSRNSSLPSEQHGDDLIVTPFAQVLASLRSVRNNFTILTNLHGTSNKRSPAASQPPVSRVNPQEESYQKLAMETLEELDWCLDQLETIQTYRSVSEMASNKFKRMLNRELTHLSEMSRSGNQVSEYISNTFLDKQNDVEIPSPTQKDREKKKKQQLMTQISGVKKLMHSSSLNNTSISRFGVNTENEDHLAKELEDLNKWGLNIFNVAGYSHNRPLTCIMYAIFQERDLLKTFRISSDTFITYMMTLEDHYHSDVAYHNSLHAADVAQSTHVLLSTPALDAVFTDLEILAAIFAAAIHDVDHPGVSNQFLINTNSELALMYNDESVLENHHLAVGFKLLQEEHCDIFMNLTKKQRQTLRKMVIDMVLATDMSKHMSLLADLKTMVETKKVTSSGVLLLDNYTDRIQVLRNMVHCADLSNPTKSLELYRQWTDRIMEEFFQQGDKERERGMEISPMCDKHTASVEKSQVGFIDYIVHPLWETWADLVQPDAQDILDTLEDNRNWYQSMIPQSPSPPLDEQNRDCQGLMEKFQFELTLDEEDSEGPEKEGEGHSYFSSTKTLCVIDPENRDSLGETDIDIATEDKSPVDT

inhibition [1]	SMILES	also measured
45.5%	Cc1ccccc1C#CCn1c(=O)c(C=O)cc2ccccc21	–
54.4%	O=Cc1cc2ccccc2n(CC#Cc2ccccc2Cl)c1=O	–
22.6%	O=Cc1cc2ccccc2n(CC#Cc2cccc([N+](=O)[O-])c2)c1=O	–
26.5%	O=Cc1cc2ccccc2n(CC#Cc2ccc(Cl)cc2)c1=O	–

The next lines start with the compound.

SMILES	inhibition [1]	also measured
O=Cc1cc2ccccc2n(CC#Cc2ccc([N+](=O)[O-])cc2)c1=O	4.15%	–
COc1ccc(C#CCn2c(=O)c(C=O)cc3ccccc32)cc1	22.6%	–
CC1=CC(C)(C)N(CC#Cc2cccc([N+](=O)[O-])c2)c2cc(Oc3ccccc3)c(NS(C)(=O)=O)cc21	41.6%	–
CC1=CC(C)(C)N(CC#Cc2ccccc2Cl)c2cc(Oc3ccccc3)c(NS(C)(=O)=O)cc21	40.3%	–
CC1=CC(C)(C)N(CC#Cc2ccc([N+](=O)[O-])cc2)c2cc(Oc3ccccc3)c(NS(C)(=O)=O)cc21	35.1%	–
CC1=CC(C)(C)N(CC#Cc2ccccc2[N+](=O)[O-])c2cc(Oc3ccccc3)c(NS(C)(=O)=O)cc21	37.4%	–
COC(=O)c1ccccc1C#CCN1c2cc(Oc3ccccc3)c(NS(C)(=O)=O)cc2C(C)=CC1(C)C	33.1%	inhibition at 10 µM (RAW264.7 [2]): 35%; inhibition [3]: 11%; inhibition [4]: 10%; inhibition at 30 µM (RAW264.7 [5]): 47%; inhibition [6]: 23%; inhibition [7]: 16%
